Read-outs that look alike come from different tables or passages of the source.
Tests used:
HepG2 cells = format: cell-based, human
Method: (§1) The cytotoxic effects of the prepared compounds on MCF-7 and HepG2 cells were investigated with the help of standard MTT assay. […] Plates were then further incubated for 72 h. Afterwards, 20 μL of MTT (5 mg/mL in PBS) were pipetted to the wells and incubated for another 4 h. The medium was then aspirated and 100 μL DMSO were added/well. Absorbance was read using a microplate reader at 570 nm. IC50 values, used to compare compound toxicity with control cells, were obtained from linear regression of the dose–response curve using Origin® 6.1 software (OriginLab Corporation, Northampton, MA, USA). […] Data were represented as mean ± SD.

MCF-7 cells = format: cell-based, human; settings: for IC50: 72 h
Method: as §1

Compound: CC[C@H](C)[C@H](NC(=O)[C@H](Cc1ccccc1)NC(=O)c1cccc(C(=O)N[C@@H](Cc2ccccc2)C(=O)N[C@H](C(=O)N[C@H](C(=O)OC)[C@@H](C)CC)[C@@H](C)CC)n1)C(=O)N[C@H](C(=O)OC)[C@@H](C)CC [2c, N^α-Dipicolinoyl-bis[L-Phe-L-ILe-L-ILe-methyl ester]]
- IC50 (HepG2 cells; 72 h): 19.3 ± 1.06 µM
- IC50 (MCF-7 cells): 24.9 ± 1.08 µM

Compound: CC[C@H](C)[C@@H]1NC(=O)c2cccc(n2)C(=O)N[C@@H]([C@@H](C)CC)C(=O)N[C@@H](Cc2ccccc2)C(=O)N[C@@H]([C@@H](C)CC)C(=O)N[C@H](C(=O)OC)CCCCNC(=O)[C@H]([C@@H](C)CC)NC(=O)[C@H](Cc2ccccc2)NC1=O [4b, Cyclo-(N^α-dipicolinoyl)-bis-[(L-ILe-L-Phe-L-Ile)-L-Lysmethyl ester]]
- IC50 (HepG2 cells; 72 h): 7.17 ± 0.892 µM
- IC50 (MCF-7 cells): 9.19 ± 0.545 µM

Compound: CC[C@H](C)[C@H](NC(=O)[C@@H](NC(=O)c1cccc(C(=O)N[C@H](C(=O)N[C@H](C(=O)O)[C@@H](C)CC)[C@@H](C)CC)n1)[C@@H](C)CC)C(=O)O [1a]
- IC50 (HepG2 cells; 72 h): 6.62 ± 0.353 µM
- IC50 (MCF-7 cells): 15.3 ± 0.672 µM

Compound: N.N.[Cl][Pt][Cl] [Cisplatin, reference compound]
- IC50 (HepG2 cells; read-out: IC50 (compound concentration required to inhibit the cell viability by 50%), HepG-2, hepatocellular cancer cell line HepG2, MTT assay, RPMI 1640, 72 h incubation, absorbance 570 nm, mean ± SD, triplicates): 10.9 ± 0.962 µM

Compound: CC[C@H](C)[C@H](NC(=O)[C@@H](NC(=O)[C@H](Cc1ccccc1)NC(=O)c1cccc(C(=O)N[C@@H](Cc2ccccc2)C(=O)N[C@H](C(=O)N[C@H](C(=O)O)[C@@H](C)CC)[C@@H](C)CC)n1)[C@@H](C)CC)C(=O)O [3c, N^α-Dipicolinoyl-bis[L-Phe-L-ILe-L-ILe-carboxylic acid]]
- IC50 (HepG2 cells; 72 h): 17 ± 1.16 µM
- IC50 (MCF-7 cells): 22.9 ± 0.992 µM

Compound: CC[C@H](C)[C@H](NC(=O)c1cccc(C(=O)N[C@H](C(=O)N[C@@H](Cc2ccccc2)C(=O)N[C@H](C(=O)OC)[C@@H](C)CC)[C@@H](C)CC)n1)C(=O)N[C@@H](Cc1ccccc1)C(=O)N[C@H](C(=O)OC)[C@@H](C)CC [2b, N^α-Dipicolinoyl-bis[L-ILe-L-L-Phe-ILe-methyl ester]]
- IC50 (HepG2 cells; 72 h): 18.7 ± 0.988 µM
- IC50 (MCF-7 cells): 20.7 ± 0.974 µM

Compound: CC[C@H](C)[C@H](NC(=O)[C@H](Cc1ccccc1)NC(=O)[C@@H](NC(=O)c1cccc(C(=O)N[C@H](C(=O)N[C@@H](Cc2ccccc2)C(=O)N[C@H](C(=O)O)[C@@H](C)CC)[C@@H](C)CC)n1)[C@@H](C)CC)C(=O)O [3b, N^α-Dipicolinoyl-bis[L-ILe-L-Phe-L-ILe-carboxylic acid]]
- IC50 (HepG2 cells; 72 h): 9.66 ± 0.792 µM
- IC50 (MCF-7 cells): 9.91 ± 0.491 µM

Compound: CC[C@H](C)[C@@H]1NC(=O)[C@H](Cc2ccccc2)NC(=O)c2cccc(n2)C(=O)N[C@@H](Cc2ccccc2)C(=O)N[C@@H]([C@@H](C)CC)C(=O)N[C@@H]([C@@H](C)CC)C(=O)N[C@H](C(=O)OC)CCCCNC(=O)[C@H]([C@@H](C)CC)NC1=O [4c, Cyclo-(N^α-dipicolinoyl)-bis-[(L-Phe-L-ILe-L-Ile)-L-Lysmethyl ester]]
- IC50 (HepG2 cells; 72 h): 9.63 ± 0.932 µM
- IC50 (MCF-7 cells): 19.6 ± 1.03 µM

Compound: CC[C@H](C)[C@H](NC(=O)c1cccc(C(=O)N[C@H](C(=O)N[C@@H](Cc2ccccc2)C(=O)O)[C@@H](C)CC)n1)C(=O)N[C@@H](Cc1ccccc1)C(=O)O [1b]
- IC50 (HepG2 cells; 72 h): 8.72 ± 0.474 µM
- IC50 (MCF-7 cells): 10.9 ± 0.534 µM

Compound: CC[C@H](C)[C@H](NC(=O)c1cccc(C(=O)N[C@H](C(=O)N[C@H](C(=O)N[C@@H](Cc2ccccc2)C(=O)OC)[C@@H](C)CC)[C@@H](C)CC)n1)C(=O)N[C@H](C(=O)N[C@@H](Cc1ccccc1)C(=O)OC)[C@@H](C)CC [2a, N^α-Dipicolinoyl-bis[L-ILe-L-ILe-L-Phe-methyl ester]]
- IC50 (HepG2 cells; 72 h): 17.5 ± 0.876 µM
- IC50 (MCF-7 cells): > 100 µM

Compound: CC[C@H](C)[C@H](NC(=O)c1cccc(C(=O)N[C@H](C(=O)N[C@H](C(=O)N[C@@H](Cc2ccccc2)C(=O)O)[C@@H](C)CC)[C@@H](C)CC)n1)C(=O)N[C@H](C(=O)N[C@@H](Cc1ccccc1)C(=O)O)[C@@H](C)CC [3a, N^α-Dipicolinoyl-bis[L-ILe-L-ILe-L-Phe-carboxylic acid]]
- IC50 (HepG2 cells; 72 h): 8.06 ± 0.863 µM
- IC50 (MCF-7 cells): 10.3 ± 0.546 µM

Compound: CC[C@H](C)[C@@H]1NC(=O)[C@H](Cc2ccccc2)NC(=O)c2cccc(n2)C(=O)N[C@@H](Cc2ccccc2)C(=O)N[C@@H]([C@@H](C)CC)C(=O)N[C@@H]([C@@H](C)CC)C(=O)N[C@H](C(=O)O)CCCCNC(=O)[C@H]([C@@H](C)CC)NC1=O [5c, Cyclo-(N^α-dipicolinoyl)-bis-[(L-Phe-L-ILe-L-Ile)-L-Lyscarboxylic acid]]
- cytotoxic activity against HepG2 cells (in words) (HepG2 cells): only active against HepG2 cells
- IC50 (HepG2 cells; 72 h): 9.57 ± 1.14 µM
- cytotoxic activity against MCF-7 cells (in words) (MCF-7 cells): did not show any activity

Compound: CC[C@H](C)[C@@H]1NC(=O)c2cccc(n2)C(=O)N[C@@H]([C@@H](C)CC)C(=O)N[C@@H](Cc2ccccc2)C(=O)N[C@@H]([C@@H](C)CC)C(=O)N[C@H](C(=O)O)CCCCNC(=O)[C@H]([C@@H](C)CC)NC(=O)[C@H](Cc2ccccc2)NC1=O [5b, Cyclo-(N^α-dipicolinoyl)-bis-[(L-ILe-L-Phe-L-Ile)-L-Lyscarboxylic acid]]
- IC50 (HepG2 cells; 72 h): 7.09 ± 0.784 µM

Compound: CC[C@H](C)[C@@H]1NC(=O)c2cccc(n2)C(=O)N[C@@H]([C@@H](C)CC)C(=O)N[C@@H]([C@@H](C)CC)C(=O)N[C@@H](Cc2ccccc2)C(=O)N[C@H](C(=O)O)CCCCNC(=O)[C@H](Cc2ccccc2)NC(=O)[C@H]([C@@H](C)CC)NC1=O [5a, Cyclo-(N^α-dipicolinoyl)-bis-[(L-ILe-L-Ile-L-Phe)-L-Lyscarboxylic acid]]
- IC50 (HepG2 cells; 72 h): 7.12 ± 0.79 µM

Compound: CC[C@H](C)[C@H](NC(=O)[C@H](Cc1ccccc1)NC(=O)c1cccc(C(=O)N[C@@H](Cc2ccccc2)C(=O)N[C@H](C(=O)O)[C@@H](C)CC)n1)C(=O)O [1c]
- IC50 (HepG2 cells; 72 h): 17 ± 0.965 µM
- IC50 (MCF-7 cells): 34.9 ± 1.27 µM

Compound: CC[C@H](C)[C@@H]1NC(=O)c2cccc(n2)C(=O)N[C@@H]([C@@H](C)CC)C(=O)N[C@@H]([C@@H](C)CC)C(=O)N[C@@H](Cc2ccccc2)C(=O)N[C@H](C(=O)OC)CCCCNC(=O)[C@H](Cc2ccccc2)NC(=O)[C@H]([C@@H](C)CC)NC1=O [4a, Cyclo-(N^α-dipicolinoyl)-bis-[(L-ILe-L-ILe-L-Phe)-L-Lysmethyl ester]]
- IC50 (HepG2 cells; 72 h): 7.31 ± 0.595 µM
- IC50 (MCF-7 cells): 9.3 ± 0.536 µM
